Common to all, as to experiment: kinase binding screen (kinase-tagged T7 phage, qPCR), % Ctrl
(In qPCR the cycle at which signal appears reflects the starting amount.)

For test [1], the target named is T1, TBK1 (Homo sapiens, UniProt Q9UHD2).
T1 sequence (Q9UHD2 1-729): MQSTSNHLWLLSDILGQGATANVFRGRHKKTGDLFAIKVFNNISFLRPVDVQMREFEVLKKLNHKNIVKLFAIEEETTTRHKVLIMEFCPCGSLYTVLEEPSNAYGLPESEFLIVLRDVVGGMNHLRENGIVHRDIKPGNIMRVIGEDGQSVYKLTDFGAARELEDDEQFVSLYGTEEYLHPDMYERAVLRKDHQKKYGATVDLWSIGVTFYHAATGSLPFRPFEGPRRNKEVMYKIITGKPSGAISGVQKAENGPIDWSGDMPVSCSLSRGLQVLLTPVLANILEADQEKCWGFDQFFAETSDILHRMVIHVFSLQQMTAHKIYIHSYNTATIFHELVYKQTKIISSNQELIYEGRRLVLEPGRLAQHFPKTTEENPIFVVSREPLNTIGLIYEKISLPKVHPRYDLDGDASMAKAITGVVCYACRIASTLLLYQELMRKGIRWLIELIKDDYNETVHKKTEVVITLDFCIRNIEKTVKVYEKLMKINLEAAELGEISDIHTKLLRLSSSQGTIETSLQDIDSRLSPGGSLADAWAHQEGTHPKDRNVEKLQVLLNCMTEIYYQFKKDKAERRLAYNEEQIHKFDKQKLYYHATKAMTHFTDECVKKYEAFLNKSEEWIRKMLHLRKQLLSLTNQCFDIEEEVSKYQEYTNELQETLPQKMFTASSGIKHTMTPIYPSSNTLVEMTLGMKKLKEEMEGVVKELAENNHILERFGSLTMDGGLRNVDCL
On the procedure:
(§1) Percentage kinase inhibition at a set concentration was performed by methods well known in the prior art (Fabian, M. A. et al. Nat. Biotechnol. 2005, 23, 329; Karaman et al. (2008) Nat. Biotechnol. […], 26, 127). Briefly, kinase-tagged T7 phage strains were grown in parallel in 24-well blocks in an E. coli host derived from the BL21 strain. E. coli were grown to log-phase and infected with T7 phage from a frozen stock (multiplicity of infection=0.4) and incubated with shaking at 32° C. until lysis (90-150 minutes). The lysates were centrifuged (6,000×g) and filtered (0.2 μm) to remove cell debris. […] The liganded beads were blocked with excess biotin and washed with blocking buffer (SeaBlock (Pierce); 1% BSA, 0.05% Tween 20, 1 mM DTT) to remove unbound ligand and to reduce non-specific phage binding. […] Test compounds were prepared as 40× stocks in 100% DMSO and directly diluted into the assay. All reactions were performed in polypropylene 384-well plates in a final volume of 0.04 mL. […] The kinase concentration in the eluates was measured by qPCR.

In test [2] the target is RPS6KA1(Kin.Dom.2-C-terminal) (Homo sapiens, UniProt Q15418). On the procedure:
as §1

In test [3] the target is T2, RPS6KA6(Kin.Dom.2-C-terminal) (Homo sapiens, UniProt Q9UK32).
T2 sequence (Q9UK32 426-683 limits assumed): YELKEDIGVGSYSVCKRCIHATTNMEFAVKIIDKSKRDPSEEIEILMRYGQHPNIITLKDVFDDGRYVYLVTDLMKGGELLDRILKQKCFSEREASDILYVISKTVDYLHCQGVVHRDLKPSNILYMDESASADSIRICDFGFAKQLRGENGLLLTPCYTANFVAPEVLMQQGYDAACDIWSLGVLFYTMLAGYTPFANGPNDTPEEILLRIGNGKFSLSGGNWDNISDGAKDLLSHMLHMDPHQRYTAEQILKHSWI
How it is done:
as §1

For test [4], the target named is T3, PIK3C2G (Homo sapiens, UniProt O75747).
T3 sequence (O75747 1-1486): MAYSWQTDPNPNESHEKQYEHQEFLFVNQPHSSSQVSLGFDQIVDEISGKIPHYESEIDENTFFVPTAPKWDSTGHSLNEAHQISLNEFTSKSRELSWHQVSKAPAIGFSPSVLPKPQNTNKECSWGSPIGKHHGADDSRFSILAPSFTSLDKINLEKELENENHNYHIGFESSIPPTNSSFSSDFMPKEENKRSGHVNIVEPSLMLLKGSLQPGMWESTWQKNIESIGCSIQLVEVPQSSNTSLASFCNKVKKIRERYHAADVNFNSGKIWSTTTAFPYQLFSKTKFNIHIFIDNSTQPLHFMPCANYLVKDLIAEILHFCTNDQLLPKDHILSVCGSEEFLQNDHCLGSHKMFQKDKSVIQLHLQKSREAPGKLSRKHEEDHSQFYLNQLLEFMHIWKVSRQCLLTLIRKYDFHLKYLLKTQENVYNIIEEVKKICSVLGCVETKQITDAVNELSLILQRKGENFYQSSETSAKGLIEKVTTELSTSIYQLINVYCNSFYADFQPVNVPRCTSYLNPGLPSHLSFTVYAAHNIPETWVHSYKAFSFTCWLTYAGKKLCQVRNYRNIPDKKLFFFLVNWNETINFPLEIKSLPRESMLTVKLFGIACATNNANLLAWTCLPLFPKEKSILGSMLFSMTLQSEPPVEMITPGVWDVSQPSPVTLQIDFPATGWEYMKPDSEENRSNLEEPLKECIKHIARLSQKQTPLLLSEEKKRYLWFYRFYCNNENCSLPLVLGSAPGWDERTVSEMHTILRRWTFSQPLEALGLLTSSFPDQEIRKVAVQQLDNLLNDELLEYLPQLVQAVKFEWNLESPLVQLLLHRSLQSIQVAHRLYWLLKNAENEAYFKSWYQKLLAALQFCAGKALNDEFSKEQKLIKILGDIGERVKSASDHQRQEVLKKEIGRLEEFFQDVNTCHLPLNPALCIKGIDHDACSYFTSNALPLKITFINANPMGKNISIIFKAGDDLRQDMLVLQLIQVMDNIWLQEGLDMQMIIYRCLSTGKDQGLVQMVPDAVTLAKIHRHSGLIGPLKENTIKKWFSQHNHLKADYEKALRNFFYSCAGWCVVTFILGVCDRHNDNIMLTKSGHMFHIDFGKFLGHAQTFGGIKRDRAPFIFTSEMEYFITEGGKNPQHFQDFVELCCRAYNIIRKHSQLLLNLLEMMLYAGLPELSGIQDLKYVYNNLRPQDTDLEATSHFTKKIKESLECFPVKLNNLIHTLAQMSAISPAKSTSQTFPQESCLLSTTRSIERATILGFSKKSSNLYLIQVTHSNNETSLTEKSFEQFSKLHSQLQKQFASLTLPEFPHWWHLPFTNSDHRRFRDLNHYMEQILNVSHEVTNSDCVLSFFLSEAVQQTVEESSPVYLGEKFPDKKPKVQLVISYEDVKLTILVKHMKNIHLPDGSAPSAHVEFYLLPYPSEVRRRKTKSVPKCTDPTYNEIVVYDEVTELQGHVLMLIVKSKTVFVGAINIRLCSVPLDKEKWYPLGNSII
On the procedure:
as §1

A word on the remaining activity: it is the share of the control activity or signal that is left under treatment. Low readings indicate little activity left, high ones much activity left.

Sequence of RPS6KA1(Kin.Dom.2-C-terminal) (Q15418 418-675 limits assumed, species assumed): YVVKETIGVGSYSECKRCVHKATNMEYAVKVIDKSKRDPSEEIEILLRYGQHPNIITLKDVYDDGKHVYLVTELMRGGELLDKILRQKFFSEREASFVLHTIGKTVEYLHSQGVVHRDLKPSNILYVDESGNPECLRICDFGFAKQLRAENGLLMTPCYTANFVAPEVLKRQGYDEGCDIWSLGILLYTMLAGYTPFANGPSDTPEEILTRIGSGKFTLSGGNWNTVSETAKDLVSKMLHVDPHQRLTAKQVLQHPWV

Regarding `Nc1nc2c(-c3ccccn3)nccc2[nH]1` [drawing 35, 4-(pyrid-2-yl)-1H-imidazo[4,5-c]pyridin-2-amine], the remaining activity at 1 µM in test [1] amounted to 50%; in test [2] it was 33%; in test [3] it was 49%; in test [4] it was 66%.
Consider `Nc1nc2c(-c3cc(Br)c(Br)[nH]3)nccc2[nH]1` [Ageladine A, ageladine A, reference compound], for which the remaining activity at 1 µM in test [1] is 84%; in test [2], 20%; in test [3], 51%; in test [4] it was 99%. Moreover, the remaining activity at 10 µM in test [1] (10 μM) came out at 78%; in test [2] (10 μM), 22%; in test [3] (10 μM), 34%; in test [4] (10 μM), 80%.
`Nc1nc2c(-c3cnc4ccccc4c3)nccc2[nH]1` [drawing 36, 4-(quinolin-3-yl)-1H-imidazo[4,5-c]pyridin-2-amine]: the remaining activity at 1 µM in test [1] amounted to 79%; in test [2] it was 92%; in test [3], 100%; in test [4], 30%.

(Values after patent publication US20110152313A1 (MACQUARIE UNIVERSITY, priority 2008, published 2011).)
